Measurements reported in the supplement of paper PMC10307832.

Legend:
Experiment in all cases: relative viability (nuclei count vs DMSO), 5 days (fraction); higher = more cells survive
Ispinesib + Vorinostat = compound: Cc1ccc(C(=O)N(CCCN)[C@@H](c2nc3cc(Cl)ccc3c(=O)n2Cc2ccccc2)C(C)C)cc1 [Ispinesib] + O=C(CCCCCCC(=O)Nc1ccccc1)NO [Vorinostat] (partner 1 µM)
In short: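 Cells from lung cancer lines were seeded into 1536-well plates and, one day later, dosed by pin tool. Treatments were either a single drug or a fixed dose of an anchor drug with five library-drug doses (not always all listed) in √10 steps. After 5 days, nuclei were stained in a one-step fixation (final 0.05% Triton X-100, 1% formaldehyde, 1 ug/ml Hoechst) and counted on 4× images, and relative viability is the treated-to-vehicle nuclei ratio, as the median of duplicate plates.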

Ispinesib = compound: Cc1ccc(C(=O)N(CCCN)[C@@H](c2nc3cc(Cl)ccc3c(=O)n2Cc2ccccc2)C(C)C)cc1 [Ispinesib]
In short: (§1)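 Hoechst staining, done together with fixation and permeabilisation, marked nuclei for 4× imaging and MetaXpress counting. This followed 5 days without medium change after lung cancer cell lines, kept overnight at 37 °C in 1536-well plates, were pinned with five library-drug doses (not always all listed) spaced by √10 on vehicle-anchored plates. Viability is the ratio of treated-well to vehicle-well nuclei, expressed as a median across plates. Plates passed only at control CV below 25% with at least one doubling.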

Linsitinib = compound: C[C@]1(O)C[C@@H](c2nc(-c3ccc4ccc(-c5ccccc5)nc4c3)c3c(N)nccn32)C1 [Linsitinib]
In short: as §1

Cell Line | relative viability (Ispinesib + Vorinostat; first compound 0.001 µM) | relative viability (Ispinesib + Vorinostat; first compound 0.003162 µM) | relative viability (Ispinesib + Vorinostat; first compound 0.01 µM) | relative viability (Ispinesib + Vorinostat; first compound 0.03162 µM) | relative viability (Ispinesib + Vorinostat; first compound 0.1 µM) | relative viability (Ispinesib; 0.001 µM) | relative viability (Ispinesib; 0.003162 µM) | relative viability (Ispinesib; 0.01 µM) | relative viability (Ispinesib; 0.03162 µM) | relative viability (Ispinesib; 0.1 µM) | relative viability (Linsitinib; 0.01 µM) | relative viability (Linsitinib; 0.03162 µM) | relative viability (Linsitinib; 0.1 µM) | relative viability (Linsitinib; 0.3162 µM) | relative viability (Linsitinib; 1 µM) | relative viability (Linsitinib; 1 µM, anchor plate)
HCC-44 | 1.04 | 1.05 | 1.15 | 1.23 | 1.08 | 0.974 | 1.07 | 1.04 | 0.883 | 0.186 | 0.964 | 0.967 | 0.96 | 0.668 | 0.659 | 0.702
LK-2 | 0.247 | 0.348 | 0.343 | 0.195 | 0.24 | 1.13 | 1.19 | 1.17 | 0.705 | 0.348 | 0.994 | 1.09 | 0.919 | 0.594 | 0.744 | 0.6
HCC-827 | 0.827 | 0.999 | 0.861 | 0.649 | 0.696 | 1.08 | 1.07 | 1.02 | 0.929 | 0.876 | 1.06 | 1.02 | 1.09 |  | 1.01 | 0.967
SW 1573 | 0.6 | 0.678 | 0.646 | 0.197 | 0.148 | 1.01 | 0.973 | 1.1 | 0.666 | 0.343 | 1.04 | 1.01 | 0.98 | 0.796 | 0.723 | 0.801
NCI-H2023 | 0.646 | 0.563 | 0.43 | 0.237 | 0.162 | 1.08 | 0.961 | 1.06 | 0.387 | 0.177 | 0.912 | 0.668 | 0.949 | 0.649 | 0.618 | 0.687
EPLC-272H | 0.351 | 0.635 | 0.322 | 0.128 | 0.341 | 0.868 | 1.04 | 0.909 | 0.342 | 0.151 | 1.02 | 1.01 | 0.799 |  | 0.879 | 1.19
SK-LU-1 | 0.709 | 0.763 | 0.911 | 0.615 | 0.506 | 1.15 | 1.15 | 1.16 | 0.881 | 0.592 | 1.01 | 0.859 | 1.03 | 0.6 | 0.967 | 0.999
NCI-H358 | 0.977 | 0.752 | 0.744 | 0.703 | 0.196 | 1.15 | 1 | 1 | 0.528 | 0.313 | 0.86 | 0.978 | 0.9 | 0.809 | 0.522 | 0.749
ABC-1 | 1.14 | 1.3 | 1.05 |  | 0.548 | 1.01 | 1.01 | 0.979 | 0.314 | 0.367 | 0.88 | 0.789 | 0.993 | 0.617 | 0.533 | 0.859
NCI-H1395 | 0.754 | 0.871 | 0.385 | 0.386 | 0.421 | 0.95 | 1.06 | 0.854 | 0.44 | 0.354 | 0.935 | 0.79 | 1.03 | 0.806 | 0.893 | 1.17
NCI-H2085 | 0.773 | 0.762 | 0.864 | 0.594 | 0.429 | 1.02 | 1.02 | 1.06 | 0.854 | 0.536 | 0.93 | 1 | 1.05 | 0.915 | 0.906 | 0.888
NCI-H2087 | 0.963 | 0.45 | 0.937 | 0.995 | 0.141 | 1.01 | 1.03 | 1.23 | 0.335 | 0.137 | 1.07 | 1.04 | 1.13 | 0.615 | 0.683 | 0.908
NCI-H322M | 0.96 | 0.95 | 0.995 | 0.659 | 0.505 | 1.13 | 0.945 | 0.914 | 0.472 | 0.58 | 0.954 | 0.993 | 0.95 | 0.814 | 0.701 | 0.95
NCI-H1734 | 0.854 | 0.904 | 0.91 | 0.552 | 0.262 | 0.971 | 1.01 | 1.09 | 0.612 | 0.262 | 1.06 | 1.04 | 0.88 | 0.674 | 0.721 | 0.862
NCI-H2228 | 0.742 | 0.786 | 0.722 | 0.341 | 0.242 | 1.03 | 1 | 1.38 | 0.688 | 0.344 | 0.882 | 0.873 | 0.768 | 0.752 | 0.746 | 0.741
EKVX | 0.741 | 0.78 | 0.693 | 0.623 | 0.561 | 0.996 | 0.993 | 1.07 | 0.856 | 0.573 | 0.99 | 0.991 | 0.999 | 0.739 | 0.832 | 1.01
NCI-H596 | 0.58 | 0.741 | 0.642 | 0.609 | 0.35 | 0.993 | 0.933 | 1.03 | 0.999 | 0.444 | 1.04 | 0.942 | 0.998 | 0.933 | 0.886 | 1.06
NCI-H1975 | 0.738 | 0.766 | 0.798 | 0.586 | 0.279 | 1 | 0.952 | 1 | 0.742 | 0.184 | 0.939 | 0.927 | 0.869 | 0.835 | 0.775 | 0.984
NCI-H2170 | 0.923 | 0.77 | 0.969 | 0.502 | 0.199 | 1.03 | 1.05 | 1.08 | 0.599 | 0.253 | 1.02 | 0.962 | 0.939 | 0.746 | 1.02 | 

Cell Line | relative viability (Ispinesib + Vorinostat; first compound 0.001 µM) | relative viability (Ispinesib + Vorinostat; first compound 0.003162 µM) | relative viability (Ispinesib + Vorinostat; first compound 0.01 µM) | relative viability (Ispinesib + Vorinostat; first compound 0.03162 µM) | relative viability (Ispinesib + Vorinostat; first compound 0.1 µM) | relative viability (Ispinesib; 0.001 µM) | relative viability (Ispinesib; 0.003162 µM) | relative viability (Ispinesib; 0.01 µM) | relative viability (Ispinesib; 0.03162 µM) | relative viability (Ispinesib; 0.1 µM) | relative viability (Linsitinib; 0.01 µM) | relative viability (Linsitinib; 0.03162 µM) | relative viability (Linsitinib; 0.1 µM) | relative viability (Linsitinib; 0.3162 µM) | relative viability (Linsitinib; 1 µM) | relative viability (Linsitinib; 1 µM, anchor plate)
NCI-H1666 | 1.11 | 1.05 | 1.08 | 1.07 | 0.84 | 0.997 | 1.05 | 0.953 | 0.79 | 0.508 | 0.975 | 0.983 | 1.04 | 0.755 | 0.747 | 0.878
PC-3 [JPC-3] | 0.776 | 0.977 | 0.794 | 0.498 | 0.435 | 1.06 | 1.15 | 1.09 | 0.909 | 0.533 | 1.04 | 1.06 | 1.1 | 0.947 | 0.916 | 0.949
NCI-H1755 | 0.726 | 0.789 | 0.937 | 0.636 | 0.419 | 0.972 | 1.1 | 1.1 | 0.745 | 0.351 | 0.976 | 1.01 | 1.01 | 0.769 | 0.915 | 0.996
RERF-LC-KJ | 0.585 | 0.679 | 0.553 | 0.39 | 0.397 | 1.04 | 0.975 | 1.03 | 0.684 | 0.331 | 1 | 1.01 | 0.949 | 0.682 | 0.871 | 0.878
NCI-H647 | 0.637 | 0.57 | 0.497 | 0.333 | 0.141 | 0.995 | 1.05 | 1.18 | 0.188 | 0.153 | 0.968 | 0.881 | 1.03 |  | 0.859 | 1.18
BEN | 0.538 | 0.676 | 0.642 | 0.478 | 0.374 | 1.12 | 1.1 | 0.983 | 0.647 | 0.378 | 0.945 | 0.948 | 0.832 | 0.657 | 0.933 | 0.935
201T | 1 | 1.01 | 1.02 | 0.908 | 0.28 | 0.978 | 1.05 | 1.03 | 0.786 | 0.367 | 0.988 | 0.989 | 1.01 | 0.967 | 0.911 | 1.03
LC-2-ad | 0.718 | 0.697 | 0.765 | 0.321 | 0.19 | 1.04 | 1.1 | 1.07 | 0.536 | 0.175 | 0.941 | 0.896 | 0.967 | 0.735 | 0.756 | 0.86
NCI-H2342 | 0.664 | 0.724 | 0.797 | 0.75 | 0.554 | 0.986 | 0.942 | 1.04 | 0.935 | 0.638 | 0.889 | 1.07 | 0.86 | 1.01 | 0.768 | 
LCLC-97TM1 | 0.645 | 0.847 | 1.04 | 0.289 | 0.0855 | 1.02 | 0.964 | 1.18 | 0.6 | 0.132 | 0.901 | 1.01 | 0.99 | 0.329 | 0.477 | 0.186
NCI-H1915 | 0.532 | 0.539 | 0.525 | 0.238 | 0.101 | 0.971 | 1.09 | 1.02 | 0.451 | 0.209 | 1.02 | 1.04 | 1.01 | 0.828 | 0.684 | 1.07
NCI-H3122 | 1 | 1.09 | 1.07 | 0.855 | 0.119 | 1.09 | 1.06 | 1.01 | 0.779 | 0.172 | 0.99 | 0.947 | 1 | 0.575 | 1.02 | 1.01
NCI-H1650 | 0.779 | 0.535 | 0.521 | 0.416 | 0.234 | 1.07 | 1.02 | 0.912 | 0.261 | 0.196 | 0.917 | 0.894 | 0.926 | 0.477 | 0.665 | 
SW 900 | 0.523 | 0.606 | 0.478 | 0.449 | 0.294 | 0.858 | 0.995 | 1.05 | 0.683 | 0.283 | 0.885 | 0.986 | 0.862 | 0.538 | 0.477 | 
NCI-H1993 | 0.984 | 0.738 | 0.74 | 0.515 | 0.438 | 0.959 | 1.05 | 1.05 | 0.912 | 0.651 | 1.03 | 0.916 | 0.879 | 0.622 | 0.607 | 0.759
NCI-H2405 | 1.07 | 1.19 | 1.23 | 0.622 | 0.519 | 1.05 | 1.05 | 1.05 | 0.884 | 0.561 | 0.93 | 0.966 | 1 | 0.821 | 0.678 | 0.891
NCI-H661 | 0.869 | 0.804 | 0.849 | 0.302 | 0.19 | 0.968 | 0.983 | 0.993 | 0.742 | 0.289 | 0.926 | 1.09 | 1.01 | 0.853 | 1.04 | 0.63
NCI-H1648 | 0.594 | 0.682 | 0.422 | 0.634 | 0.428 | 1.02 | 1.13 | 0.792 | 1.14 | 0.387 | 1.11 | 0.972 | 0.868 | 0.345 | 0.8 | 
